Patent publication US20250163022A1, “PARP1 INHIBITORS” (Synnovation Therapeutics, Inc., priority 2021, published 2025)

Each molecule was assayed against T1, PARP1 (Homo sapiens, UniProt P09874) (assay: In-Cell Western measurement of PARylation in PARP1 WT and knockout cells). Settings: HeLa cells (wide-type with PARP1 gene); hydrogen peroxide-induced PARylation; compounds 30 min, then 10 mM hydrogen peroxide 15 min; read-out: HeLa_WT_IC50.
T1 construct: HeLa cells (wide-type with PARP1 gene) were purchased from ATCC; host or cells: HeLa (wild type)
Format: cell-based
Text: The purpose of this cell-based assay is to measure the potency and selectivity of synthesized PARP inhibitors in suppressing hydrogen peroxide-induced PARylation in cells with and without PARP1 expression. Several cell lines were used in this assay. The human PARP1 knockout HEK-293T cell line (#ab266598) was purchased from Abcam, and its corresponding wide-type control is the human wild-type HEK-293T cell line (#ab255449). The HAP1 isogenic cell lines with and without the PARP1 gene (#HZGHC003943c006) were purchased from Horizon Discovery. HeLa cells (wide-type with PARP1 gene) were purchased from ATCC. Cells were cultured using complete medium containing 10% fetal bovine serum. One day before the assay, cells were seeded in 96-well plates at the density of 20,000 cells per well in 100 uL complete medium. Compounds were dissolved using DMSO and diluted to the working concentrations using complete medium. Cells were pre-treated with compounds for 30 min and then stimulated with 10 mM hydrogen peroxide for 15 min. After stimulation, cells were immediately fixed using ice-cold methanol for 20 min. After fixation, cells were washed using 1×PBST buffer for 3 times, 5 min each time, to eliminate residual methanol. Cells were blocked for 2 h at room temperature in blocking buffer (LI-COR Biosciences, #927-70001). Primary antibody was diluted in diluent buffer (LI-COR Biosciences, #927-75001, 1:200) at 50 uL per well. Cells were incubated with the primary antibody at 4° C. for 18 h. The wells were then washed using 1×PBST for 3 times, 5 min each time. IRDye® 680RD Goat anti-Mouse IgG (H+L) secondary antibody was diluted at 1/2000 using the diluent buffer and added at 100 μL per well. Secondary antibody incubation was for 1 h at room temperature. Cells were then washed using 1×PBST for 3 times, 5 min each time. The signal was detected and analyzed using LI-COR Odyssey DLx Imaging system. Data were collected and further processed using GraphPad Prism for IC50 estimation.

T1 sequence (P09874 whole entry): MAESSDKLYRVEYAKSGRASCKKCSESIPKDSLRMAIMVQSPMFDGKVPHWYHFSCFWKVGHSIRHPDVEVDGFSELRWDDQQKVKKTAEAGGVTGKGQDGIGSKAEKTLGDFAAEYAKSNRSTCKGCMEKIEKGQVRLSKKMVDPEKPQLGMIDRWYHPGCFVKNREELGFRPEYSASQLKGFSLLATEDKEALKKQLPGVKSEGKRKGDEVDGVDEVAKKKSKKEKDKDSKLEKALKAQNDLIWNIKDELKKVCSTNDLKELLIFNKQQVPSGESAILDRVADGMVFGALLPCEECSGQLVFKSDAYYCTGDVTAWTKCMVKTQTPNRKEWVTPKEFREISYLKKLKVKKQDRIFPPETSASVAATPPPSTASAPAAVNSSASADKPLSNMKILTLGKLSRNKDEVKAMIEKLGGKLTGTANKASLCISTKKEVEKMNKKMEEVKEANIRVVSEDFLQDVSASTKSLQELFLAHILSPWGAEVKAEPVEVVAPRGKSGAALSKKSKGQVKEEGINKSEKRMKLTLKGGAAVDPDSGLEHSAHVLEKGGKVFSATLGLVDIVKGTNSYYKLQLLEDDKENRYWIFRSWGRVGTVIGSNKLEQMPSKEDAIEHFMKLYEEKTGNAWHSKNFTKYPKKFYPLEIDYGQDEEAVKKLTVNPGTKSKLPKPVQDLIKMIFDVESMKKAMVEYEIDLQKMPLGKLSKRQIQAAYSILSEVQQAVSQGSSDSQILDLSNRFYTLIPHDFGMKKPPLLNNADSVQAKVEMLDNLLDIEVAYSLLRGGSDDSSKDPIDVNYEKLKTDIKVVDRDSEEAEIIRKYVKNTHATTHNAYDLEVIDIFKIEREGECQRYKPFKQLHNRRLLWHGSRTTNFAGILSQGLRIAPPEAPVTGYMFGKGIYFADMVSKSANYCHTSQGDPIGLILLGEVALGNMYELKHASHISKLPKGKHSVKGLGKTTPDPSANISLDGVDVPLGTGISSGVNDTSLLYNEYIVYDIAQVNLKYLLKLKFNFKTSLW

| Structure (SMILES) | IC50 [nM] |
| --- | --- |
| CCn1c(=O)[nH]c2cc(CN3CCN(c4ccc(C(=O)NC)nc4F)CC3)ccc2c1=O [Compound I-29, 5-(4-((3-Ethyl-2,4-dioxo-1,2,3,4-tetrahydroquinazolin-7-yl)methyl)piperazin-1-yl)-6-fluoro-N-methylpicolinamide] | ≤ 10 |
| CNC(=O)c1ccc(N2CCN(Cc3cc4[nH]c(=O)c5c(c4cn3)CCC5)CC2)c(C)n1 [Compound I-30, N,6-dimethyl-5-(4-((6-oxo-6,7,8,9-tetrahydro-5H-cyclopenta[c][1,6]naphthyridin-3-yl)methyl)piperazin-1-yl)picolinamide] | ≤ 10 |
| CCn1c(=O)[nH]c2cc(CN3CCN(c4ccc(C(=O)NC)nc4C(F)(F)F)CC3)ccc2c1=O [Compound I-31, 5-(4-((3-Ethyl-2,4-dioxo-1,2,3,4-tetrahydroquinazolin-7-yl)methyl)piperazin-1-yl)-N-methyl-6-(trifluoromethyl)picolinamide] | ≤ 10 |
| CCn1c(=O)[nH]c2cc(CN3CCN(c4ccc(C(=O)NC)nc4C)CC3)cc(Cl)c2c1=O [Compound I-32, 5-(4-((5-chloro-3-ethyl-2,4-dioxo-1,2,3,4-tetrahydroquinazolin-7-yl)methyl)piperazin-1-yl)-N,6-dimethylpicolinamide] | ≤ 10 |
| CCn1c(=O)[nH]c2cc(CN3CCN(c4ccc(C(=O)NC)nc4F)CC3)cc(F)c2c1=O [Compound I-33, 5-(4-((3-Ethyl-5-fluoro-2,4-dioxo-1,2,3,4-tetrahydroquinazolin-7-yl)methyl)piperazin-1-yl)-6-fluoro-N-methylpicolinamide] | ≤ 10 |
| CCN1C(=O)Nc2c(F)c(CN3CCN(c4ccc(C(=O)NC)nc4C)CC3)cc3c2c1nn3C [Compound I-34, 5-(4-((3-Ethyl-6-fluoro-1-methyl-4-oxo-1,3,4,5-tetrahydropyrazolo[3,4,5-de]quinazolin-7-yl)methyl)piperazin-1-yl)-N,6-dimethylpicolinamide] | ≤ 10 |
| CCN1C(=O)Nc2c(F)c(CN3CCN(c4ccc(C(=O)NC)nc4C)CC3)cc3ncnc1c23 [Compound I-35, 5-(4-((3-ethyl-9-fluoro-2-oxo-2,3-dihydro-1H-pyrimido[4,5,6-de]quinazolin-8-yl)methyl)piperazin-1-yl)-N,6-dimethylpicolinamide] | ≤ 10 |
| [2H]C([2H])([2H])NC(=O)c1ccc(N2CCN(Cc3cc(F)c4c(=O)n(CC)c(=O)[nH]c4c3)CC2)c(C([2H])([2H])[2H])n1 [Compound I-36, 5-(4-((3-Ethyl-5-fluoro-2,4-dioxo-1,2,3,4-tetrahydroquinazolin-7-yl)methyl)piperazin-1-yl)-N,6-bis(methyl-d3)picolinamide] | ≤ 10 |
| CCn1c(=O)[nH]c2cc(CN3CCN(c4ccc(C(=O)NC)nc4C)CC3)cc(C(F)F)c2c1=O [Compound I-37, 5-(4-((5-(Difluoromethyl)-3-ethyl-2,4-dioxo-1,2,3,4-tetrahydroquinazolin-7-yl)methyl)piperazin-1-yl)-N,6-dimethylpicolinamide] | ≤ 10 |
| CNC(=O)c1ccc(N2CCN(Cc3cc(OC)c4c(=O)n(C)c(=O)[nH]c4c3F)CC2)c(C)n1 [Compound I-38, 5-(4-((8-Fluoro-5-methoxy-3-methyl-2,4-dioxo-1,2,3,4-tetrahydroquinazolin-7-yl)methyl)piperazin-1-yl)-N,6-dimethylpicolinamide] | ≤ 10 |
| CCn1c(=O)[nH]c2c(F)c(CN3CCN(c4ccc(C(=O)NC)nc4C)CC3)cc(Cl)c2c1=O [Compound I-39, 5-(4-((5-chloro-3-ethyl-8-fluoro-2,4-dioxo-1,2,3,4-tetrahydroquinazolin-7-yl)methyl)piperazin-1-yl)-N,6-dimethylpicolinamide] | ≤ 10 |
| CCn1c(=O)[nH]c2c(F)c(CN3CCN(c4ccc(C(=O)NC)nc4C)CC3)cc(C3CC3)c2c1=O [Compound I-40, 5-(4-((5-Cyclopropyl-3-ethyl-8-fluoro-2,4-dioxo-1,2,3,4-tetrahydroquinazolin-7-yl)methyl)piperazin-1-yl)-N,6-dimethylpicolinamide] | ≤ 10 |
| CCn1c(=O)[nH]c2c(F)c(CN3CCN(c4ccc(C(=O)NC)nc4C)CC3)cc(CO)c2c1=O [Compound I-41, 5-(4-((3-Ethyl-8-fluoro-5-(hydroxymethyl)-2,4-dioxo-1,2,3,4-tetrahydroquinazolin-7-yl)methyl)piperazin-1-yl)-N,6-dimethylpicolinamide] | ≤ 10 |
| CCn1c(=O)[nH]c2c(F)c(CN3CCN(c4ccc(C(=O)NC)nc4C)CC3)cc(CC#N)c2c1=O [Compound I-42, 5-(4-((5-(Cyanomethyl)-3-ethyl-8-fluoro-2,4-dioxo-1,2,3,4-tetrahydroquinazolin-7-yl)methyl)piperazin-1-yl)-N,6-dimethylpicolinamide] | ≤ 10 |
| CCNC(=O)c1ccc(N2CCN(Cc3cc(Cl)c4c(=O)n(C)c(=O)[nH]c4c3)CC2)c(C)n1 [Compound I-43, 5-(4-((5-Chloro-3-methyl-2,4-dioxo-1,2,3,4-tetrahydroquinazolin-7-yl)methyl)piperazin-1-yl)-N-ethyl-6-methylpicolinamide] | ≤ 10 |
| [2H]C([2H])([2H])NC(=O)c1ccc(N2CCN(Cc3ccc4c(=O)n(CC)c(=O)[nH]c4c3)CC2)c(C([2H])([2H])[2H])n1 [Compound I-44, 5-(4-((3-ethyl-2,4-dioxo-1,2,3,4-tetrahydroquinazolin-7-yl)methyl)piperazin-1-yl)-N,6-bis(methyl-d3)picolinamide] | ≤ 10 |
| CCN1C(=O)Nc2cc(CN3CCN(c4ccc(C(=O)NC)nc4C)CC3)cc3cnnc1c23 [Compound I-45, 5-[4-[(12-Ethyl-11-oxo-2,3,10,12-tetrazatricyclo[7.3.1.05,13]trideca-1,3,5,7,9 (13)-pentaen-7-yl)methyl]piperazin-1-yl]-N,6-dimethyl-pyridine-2-carboxamide] | ≤ 10 |
| CCn1c(=O)[nH]c2c(F)c(CN3CCN(c4ccc(C(=O)NC)nc4C)CC3)cc(COC)c2c1=O [Compound I-46, 5-(4-((3-Ethyl-8-fluoro-5-(methoxymethyl)-2,4-dioxo-1,2,3,4-tetrahydroquinazolin-7-yl)methyl)piperazin-1-yl)-N,6-dimethylpicolinamide] | ≤ 10 |
| CNC(=O)c1ccc(N2CCN(Cc3cc(C(F)F)c4c(=O)n(C)c(=O)[nH]c4c3)CC2)c(C)n1 [Compound I-47, 5-(4-((5-(Difluoromethyl)-3-methyl-2,4-dioxo-1,2,3,4-tetrahydroquinazolin-7-yl)methyl)piperazin-1-yl)-N,6-dimethylpicolinamide] | ≤ 10 |
| CCNC(=O)c1ccc(N2CCN(Cc3cc(Cl)c4c(=O)n(CC)c(=O)[nH]c4c3)CC2)c(C)n1 [Compound I-48, 5-(4-((5-chloro-3-ethyl-2,4-dioxo-1,2,3,4-tetrahydroquinazolin-7-yl)methyl)piperazin-1-yl)-N-ethyl-6-methylpicolinamide] | ≤ 10 |
| CNC(=O)c1ccc(N2CCN(Cc3cc(C4CC4)c4c(=O)n(C)c(=O)[nH]c4c3F)CC2)c(C)n1 [Compound I-49, 5-(4-((5-Cyclopropyl-8-fluoro-3-methyl-2,4-dioxo-1,2,3,4-tetrahydroquinazolin-7-yl)methyl)piperazin-1-yl)-N,6-dimethylpicolinamide] | ≤ 10 |
| CCN1C(=O)Nc2c(F)c(CN3CCN(c4ccc(C(=O)NC)nc4C)CC3)cc3nc(OC)nc1c23 [Compound I-50, 5-(4-((3-Ethyl-9-fluoro-5-methoxy-2-oxo-2,3-dihydro-1H-pyrimido[4,5,6-de]quinazolin-8-yl)methyl)piperazin-1-yl)-N,6-dimethylpicolinamide] | ≤ 10 |
| CCN1C(=O)Nc2c(F)c(CN3CCN(c4ccc(C(=O)NC)nc4C)CC3)cc3c2c1nc(=O)n3C [Compound I-51, 5-(4-((3-Ethyl-9-fluoro-6-methyl-2,5-dioxo-2,3,5,6-tetrahydro-1H-pyrimido[4,5,6-de]quinazolin-8-yl)methyl)piperazin-1-yl)-N,6-dimethylpicolinamide] | 10 to 100 |
| CCN1C(=O)Nc2c(F)c(CN3CCN(c4ccc(C(=O)NC)nc4C)CC3)cc3nc(C)nc1c23 [Compound I-52, 5-(4-((3-Ethyl-9-fluoro-5-methyl-2-oxo-2,3-dihydro-1H-pyrimido[4,5,6-de]quinazolin-8-yl)methyl)piperazin-1-yl)-N,6-dimethylpicolinamide] | ≤ 10 |
| CCN1C(=O)Nc2c(F)c(CN3CCN(c4ccc(C(=O)NC)nc4C)CC3)cc3c(C)nnc1c23 [Compound I-54, 5-(4-((9-Ethyl-6-fluoro-3-methyl-8-oxo-8,9-dihydro-7H-pyridazino[3,4,5-de]quinazolin-5-yl)methyl)piperazin-1-yl)-N,6-dimethylpicolinamide] | ≤ 10 |
